As usually defined, the IC50 is the concentration at which inhibition is half-maximal. Low values mean higher potency, high ones lower potency.

Assay [1] has as its target T1, PIKFYVE (Homo sapiens, UniProt Q9Y2I7).
T1 construct: host or cells: HEK293 (ATCC, CRL-1573)
Put plainly: NanoBRET TE Intracellular Kinase Assay, interaction of PIKFYVE and compounds in HEK293 cells. It counts as cell-based. The following applies: IC50 class from BRET; HEK293 cells expressing PIKFYVE-NanoLuc; 2 hours incubation. The protocol:
To predict the efficacy of the compounds according to Example on PIKFYVE in humans, the interaction between PIKFYVE and the compounds was tested using the HEK293 cell line derived from human embryonic kidney (ATCC, CRL-1573) via NanoBRETT TE Intracellular Kinase Assay Service of Carna biosciences Inc., (Japan). The evaluation method provided by Carna biosciences Inc., was shown below and the NanoBRET™ TE Intracellular Kinase Assay, K-8 Kit (Promega, CS1810C88) was used.
The HEK-293 cells cultured in Opti-MEM™ I Reduced Serum Medium (Thermo Fisher, 11058-021) were transfected with Transfection Carrier DNA (Promega, E4881), PIKFYVE-NanoLuc Fusion Vector (Promega, CS1810C225), and FuGENE HD Transfection Reagent (Promega, E2311) to produce cells expressing genes combining PIKFYVE and NanoLuc, followed by culturing 100 μl (2×10^5 cells/ml) each in 96-well plates (Corning, 3917).
10× compounds according to Examples or Comparative Examples prepared by concentration in 1× NanoBRET™ tracer reagent and DMSO were reacted in 96-well plates and incubated for 2 hours in a 37° C., 5% CO2 incubator.
After the reaction was completed, 3× Complete NanoBRET™ Nano-Glo Substrate solution was added to each well, and the reaction was allowed to run for 2-3 minutes at room temperature before BRET was measured using a GloMax Discover Multimode Microplate Reader (Promega).

For assay [2], the target named is T2, human GST-PIKFYVE (Homo sapiens, UniProt Q9Y2I7).
T2 construct: GST; purchased Carna biosciences 11-118
T2 sequence (Q9Y2I7 whole entry): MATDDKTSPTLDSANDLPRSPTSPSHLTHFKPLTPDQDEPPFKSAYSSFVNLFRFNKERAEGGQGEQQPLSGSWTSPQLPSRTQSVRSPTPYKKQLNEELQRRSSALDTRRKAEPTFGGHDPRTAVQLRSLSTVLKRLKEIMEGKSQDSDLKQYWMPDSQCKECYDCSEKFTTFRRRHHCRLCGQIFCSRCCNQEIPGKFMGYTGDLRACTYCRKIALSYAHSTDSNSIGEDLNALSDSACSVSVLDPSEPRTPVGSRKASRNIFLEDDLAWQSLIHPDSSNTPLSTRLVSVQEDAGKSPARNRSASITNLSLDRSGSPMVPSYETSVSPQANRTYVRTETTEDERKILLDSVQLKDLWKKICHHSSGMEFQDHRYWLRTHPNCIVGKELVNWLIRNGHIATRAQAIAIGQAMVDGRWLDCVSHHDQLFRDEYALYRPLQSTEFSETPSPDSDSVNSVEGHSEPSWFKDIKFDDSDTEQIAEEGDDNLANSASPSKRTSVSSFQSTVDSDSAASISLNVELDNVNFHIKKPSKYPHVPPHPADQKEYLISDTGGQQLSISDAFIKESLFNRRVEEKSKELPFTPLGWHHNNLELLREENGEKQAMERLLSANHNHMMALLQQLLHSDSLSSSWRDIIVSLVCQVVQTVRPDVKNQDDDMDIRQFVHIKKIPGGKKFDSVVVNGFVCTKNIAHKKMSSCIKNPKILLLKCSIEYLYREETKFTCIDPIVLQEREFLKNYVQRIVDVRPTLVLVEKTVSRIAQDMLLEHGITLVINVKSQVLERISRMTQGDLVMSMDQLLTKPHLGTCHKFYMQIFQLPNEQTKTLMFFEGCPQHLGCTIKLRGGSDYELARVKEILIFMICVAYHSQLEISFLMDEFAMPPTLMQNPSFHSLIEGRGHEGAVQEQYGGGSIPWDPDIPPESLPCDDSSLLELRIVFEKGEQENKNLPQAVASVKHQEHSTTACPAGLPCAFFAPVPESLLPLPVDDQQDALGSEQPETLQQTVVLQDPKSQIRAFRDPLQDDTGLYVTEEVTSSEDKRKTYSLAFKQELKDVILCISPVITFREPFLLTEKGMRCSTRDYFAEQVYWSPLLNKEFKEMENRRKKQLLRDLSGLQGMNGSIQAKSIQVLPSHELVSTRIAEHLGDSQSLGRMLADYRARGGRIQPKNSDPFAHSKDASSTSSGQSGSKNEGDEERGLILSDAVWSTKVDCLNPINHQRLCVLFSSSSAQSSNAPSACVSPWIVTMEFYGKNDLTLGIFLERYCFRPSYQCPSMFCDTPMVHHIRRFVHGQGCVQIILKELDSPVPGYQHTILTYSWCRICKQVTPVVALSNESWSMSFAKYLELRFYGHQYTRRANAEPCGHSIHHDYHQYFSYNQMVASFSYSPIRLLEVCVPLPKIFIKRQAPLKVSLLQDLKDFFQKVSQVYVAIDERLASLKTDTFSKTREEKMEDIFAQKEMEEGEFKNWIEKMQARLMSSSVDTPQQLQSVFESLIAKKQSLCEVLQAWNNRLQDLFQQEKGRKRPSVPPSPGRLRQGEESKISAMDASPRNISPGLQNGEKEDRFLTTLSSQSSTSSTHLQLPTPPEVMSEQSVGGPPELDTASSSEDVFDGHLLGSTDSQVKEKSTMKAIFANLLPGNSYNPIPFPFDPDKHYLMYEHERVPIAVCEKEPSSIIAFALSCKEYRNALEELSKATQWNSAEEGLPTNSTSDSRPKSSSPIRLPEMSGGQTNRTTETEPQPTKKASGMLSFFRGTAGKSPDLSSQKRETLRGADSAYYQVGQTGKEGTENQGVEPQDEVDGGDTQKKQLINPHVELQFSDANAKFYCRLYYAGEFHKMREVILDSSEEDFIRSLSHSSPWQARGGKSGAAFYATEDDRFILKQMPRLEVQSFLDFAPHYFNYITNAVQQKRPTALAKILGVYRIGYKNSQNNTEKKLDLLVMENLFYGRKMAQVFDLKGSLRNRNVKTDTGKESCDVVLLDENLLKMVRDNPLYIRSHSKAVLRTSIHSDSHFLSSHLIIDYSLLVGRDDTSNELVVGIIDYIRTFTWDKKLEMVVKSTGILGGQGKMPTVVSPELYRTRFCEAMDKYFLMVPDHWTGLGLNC
Put plainly: ADP-Glo kinase assay, enzyme inhibition activity against human PIKFYVE (Carna biosciences). Particulars: inhibitory activity at final compound concentration 10 nM; 1 hour at room temperature. It counts as biochemical. The procedure, abridged:
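Human GST-PIKFYVE (glutathione Sepharose-purified) was reacted with substrate and ATP for 1 h at room temperature in 50 mM MOPS, 1 mM DTT, pH 7.2, with compound at 10 nM final. ADP formed was read by ADP-Glo luminescence; inhibition was calculated against no-enzyme (100%) and no-compound (0%) controls.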

T1 sequence (Q9Y2I7 whole entry): as above

In the case of `Cc1cccc(/C=N/Nc2nc(N3CCOCC3)nc3c2ncn3CCc2ccccn2)c1` [Example 73, (E)-4-(6-(2-(3-methylbenzylidene)hydrazinyl)-9-(2-(pyridin-2-yl)ethyl)-9H-purin-2-yl)morpholine], the IC50 in assay [1] was 10 to 20 nM. For the same compound, the “ADP-Glo kinase assay (%, 10 nM)” value in assay [2] is given as 80.98%.

In assay [1], `Cc1cccc(/C=N/Nc2nc(N3CCOCC3)nc3c2ncn3CC2(C)COC2)c1` [Example 74, (E)-4-(6-(2-(3-methylbenzylidene)hydrazinyl)-9-((3-methyloxetan-3-yl)methyl)-9H-purin-2-yl)morpholine] registered an IC50 of 20 to 30 nM. The “ADP-Glo kinase assay (%, 10 nM)” value in assay [2] worked out at 69.71%.

In assay [1], `Cc1cccc(/C=N/Nc2nc(N3CCOCC3)nc3c2ncn3CCc2cccnc2)c1` [Example 80, (E)-4-(6-(2-(3-methylbenzylidene)hydrazinyl)-9-(2-(pyridin-3-yl)ethyl)-9H-purin-2-yl)morpholine] registered an IC50 of at most 10 nM. Besides, the “ADP-Glo kinase assay (%, 10 nM)” value in assay [2] is listed as 83.61%.

`Cc1cccc(/C=N/Nc2nc(N3CCOCC3)nc3c2ncn3C2CCN(C(=O)c3cccnc3)CC2)c1` [Example 87, (E)-(4-(6-(2-(3-methylbenzylidene)hydrazinyl)-2-morpholino-9H-purin-9-yl)piperidin-1-yl)(pyridin-3-yl)methanone] registered an IC50 in assay [1] of 10 to 20 nM. The “ADP-Glo kinase assay (%, 10 nM)” value in assay [2] turned out to be 63.65%.

`Cc1cccc(/C=N/Nc2nc(N3CCOCC3)nc3c2ncn3C2CCN(C(=O)N3CCOCC3)CC2)c1` [Example 88, (E)-(4-(6-(2-(3-methylbenzylidene)hydrazinyl)-2-morpholino-9H-purin-9-yl)piperidin-1-yl)(morpholino)methanone] displayed an IC50 in assay [1] of 20 to 30 nM. Further, the “ADP-Glo kinase assay (%, 10 nM)” value in assay [2] came to 64.66%.

`Cc1cccc(/C=N/Nc2nc(N3CCOCC3)nc3c2ncn3C2CCN(C(=O)c3ccccc3)CC2)c1` [Example 89, (E)-(4-(6-(2-(3-methylbenzylidene)hydrazinyl)-2-morpholino-9H-purin-9-yl)piperidin-1-yl)(phenyl)methanone]: the IC50 in assay [1] was in the range of 10 to 20 nM. Also, the “ADP-Glo kinase assay (%, 10 nM)” value in assay [2] is reported as 76.44%.

As to `Cc1cccc(/C=N/Nc2nc(N3CCOCC3)nc3c2ncn3C2CCN(C(=O)N(C)C)CC2)c1` [Example 90, (E)-N,N-dimethyl-4-(6-(2-(3-methylbenzylidene)hydrazinyl)-2-morpholino-9H-purin-9-yl)piperidine-1-carboxamide], the IC50 in assay [1] was 20 to 30 nM. Further, the “ADP-Glo kinase assay (%, 10 nM)” value in assay [2] is listed as 66.88%.

The compound `COC(=O)N1CCC(n2cnc3c(N/N=C/c4cccc(C)c4)nc(N4CCOCC4)nc32)CC1` [Example 91, methyl (E)-4-(6-(2-(3-methylbenzylidene)hydrazinyl)-2-morpholino-9H-purin-9-yl)piperidine-1-carboxylate] returned an IC50 in assay [1] of 10 to 20 nM. Besides, the “ADP-Glo kinase assay (%, 10 nM)” value in assay [2] is on record as 73.33%.

In the case of `Cc1cccc(/C=N/Nc2nc(N3CCOCC3)nc3c2ncn3C2CCN(S(C)(=O)=O)CC2)c1` [Example 92, (E)-4-(6-(2-(3-methylbenzylidene)hydrazinyl)-9-(1-(methylsulfonyl)piperidin-4-yl)-9H-purin-2-yl)morpholino], in assay [1], the IC50 lay in the range of 20 to 30 nM. In addition, the “ADP-Glo kinase assay (%, 10 nM)” value in assay [2] is given as 61.82%.

In assay [1], `Cc1cccc(/C=N/Nc2nc(N3CCOCC3)nc3c2ncn3C2CCN(C(=O)c3ccncc3)CC2)c1` [Example 93, (E)-(4-(6-(2-(3-methylbenzylidene)hydrazinyl)-2-morpholino-9H-purin-9-yl)piperidin-1-yl)(pyridin-4-yl)methanone] had an IC50 of 20 to 30 nM. Besides, the “ADP-Glo kinase assay (%, 10 nM)” value in assay [2] stood at 66.78%.

On to `Cc1cccc(/C=N/Nc2nc(N3CCOC[C@@H]3C)nc3c2ncn3-c2cccnc2)c1` [Example 97, (S,E)-3-methyl-4-(6-(2-(3-methylbenzylidene)hydrazinyl)-9-(pyridin-3-yl)-9H-purin-2-yl)morpholine], for which the IC50 in assay [1] is 10 to 20 nM. Moreover, the “ADP-Glo kinase assay (%, 10 nM)” value in assay [2] was 78.47%.

Consider `Cc1cccc(/C=N/Nc2nc(N3CCOCC3)nc3c2ncn3-c2ccccn2)c1` [Example 99, (E)-4-(6-(2-(3-methylbenzylidene)hydrazinyl)-9-(pyridin-2-yl)-9H-purin-2-yl)morpholine], for which, in assay [1], the IC50 was at most 10 nM. Further, in assay [2], the “ADP-Glo kinase assay (%, 10 nM)” value is reported as 87.24%.

Consider `Cc1cccc(/C=N/Nc2nc(N3CCOCC3)nc3c2ncn3-c2ccc(Cl)cc2)c1` [Example 100, (E)-4-(9-(4-chlorophenyl)-6-(2-(3-methylbenzylidene)hydrazinyl)-9H-purin-2-yl)morpholine], for which the IC50 in assay [1] was at most 10 nM. Also, the “ADP-Glo kinase assay (%, 10 nM)” value in assay [2] was found to be 83.22%.

As to `Cc1cccc(/C=N/Nc2nc(N3CCOCC3)nc3c2ncn3-c2ccnc(O)c2)c1` [Example 102, (E)-4-(6-(2-(3-methylbenzylidene)hydrazinyl)-2-morpholino-9H-purin-9-yl)pyridin-2-ol], the IC50 in assay [1] is at most 10 nM. Further, the “ADP-Glo kinase assay (%, 10 nM)” value in assay [2] is listed as 91.19%.

In assay [1], `Cc1cccc(/C=N/Nc2nc(N3CCOCC3)nc3c2ncn3-c2ccncc2)c1` [Example 103, (E)-4-(6-(2-(3-methylbenzylidene)hydrazinyl)-9-(pyridin-4-yl)-9H-purin-2-yl)morpholine] had an IC50 of at most 10 nM. Also, in assay [2], the “ADP-Glo kinase assay (%, 10 nM)” value turned out to be 91.20%.

In turn, `Cc1cccc(/C=N/Nc2nc(N3CCOCC3)nc3c2ncn3-c2ccc(C(F)(F)F)cc2)c1` [Example 104, (E)-4-(6-(2-(3-methylbenzylidene)hydrazinyl)-9-(4-(trifluoromethyl)phenyl)-9H-purin-2-yl)morpholine] yielded an IC50 in assay [1] of 10 to 20 nM. Moreover, the “ADP-Glo kinase assay (%, 10 nM)” value in assay [2] is on record as 68.18%.

On to `Cc1cccc(-c2ccn(-c3nc(N4CCOCC4)nc4c3ncn4-c3ccncc3)n2)c1` [Example 107, 4-(9-(pyridin-4-yl)-6-(3-(m-tolyl)-1H-pyrazol-1-yl)-9H-purin-2-yl)morpholine], for which the IC50 in assay [1] was at most 10 nM. In addition, in assay [2], the “ADP-Glo kinase assay (%, 10 nM)” value was determined as 82.62%.

As for `COc1ccc(-n2cnc3c(N/N=C/c4cccc(C)c4)nc(N4CCOCC4)nc32)nc1` [Example 108, (E)-4-(9-(5-methoxypyridin-2-yl)-6-(2-(3-methylbenzylidene)hydrazinyl)-9H-purin-2-yl)morpholine], the IC50 in assay [1] is at most 10 nM. Also, in assay [2], the “ADP-Glo kinase assay (%, 10 nM)” value was 80.35%.

Compound `Cc1cccc(/C=N/Nc2nc(N3CCOCC3)nc3c2ncn3-c2ccc(C)nc2)c1` [Example 110, (E)-4-(6-(2-(3-methylbenzylidene)hydrazinyl)-9-(6-methylpyridin-3-yl)-9H-purin-2-yl)morpholine] had an IC50 in assay [1] of at most 10 nM. For the same compound, in assay [2], the “ADP-Glo kinase assay (%, 10 nM)” value is recorded as 88.60%.

Turning to `C(=N\Nc1nc(N2CCOCC2)nc2c1ncn2-c1ccncc1)/c1c[nH]c2ccccc12` [Example 112, (E)-4-(6-(2-((1H-indol-3-yl)methylene)hydrazinyl)-9-(pyridin-4-yl)-9H-purin-2-yl)morpholine], the IC50 in assay [1] was at most 10 nM. In addition, the “ADP-Glo kinase assay (%, 10 nM)” value in assay [2] is 89.10%.

`COc1ccc(-n2cnc3c(N/N=C/c4cccc(C)c4)nc(N4CCOCC4)nc32)cn1` [Example 113, (E)-4-(9-(6-methoxypyridin-3-yl)-6-(2-(3-methylbenzylidene)hydrazinyl)-9H-purin-2-yl)morpholine]: the IC50 in assay [1] is at most 10 nM. The “ADP-Glo kinase assay (%, 10 nM)” value in assay [2] is listed as 87.10%.

The compound `Cc1cccc(/C=N/Nc2nc(N3CCOCC3)nc3c2ncn3-c2ccc(O)nc2)c1` [Example 114, (E)-5-(6-(2-(3-methylbenzylidene)hydrazinyl)-2-morpholino-9H-purin-9-yl)pyridin-2-ol] returned an IC50 in assay [1] of 20 to 30 nM. For the same compound, the “ADP-Glo kinase assay (%, 10 nM)” value in assay [2] is 80.06%.

With `Cc1cccc(/C=N/Nc2nc(N3CCOCC3)nc3c2ncn3-c2ccnc(Cl)c2)c1` [Example 115, (E)-4-(9-(2-chloropyridin-4-yl)-6-(2-(3-methylbenzylidene)hydrazinyl)-9H-purin-2-yl)morpholine], the IC50 in assay [1] is at most 10 nM. For the same compound, in assay [2], the “ADP-Glo kinase assay (%, 10 nM)” value was 92.24%.

`Cc1cccc(/C=N/Nc2nc(N3CCOCC3)nc3c2ncn3-c2ccc(Cl)cn2)c1` [Example 116, (E)-4-(9-(5-chloropyridin-2-yl)-6-(2-(3-methylbenzylidene)hydrazinyl)-9H-purin-2-yl)morpholine]: in assay [1], the IC50 was at most 10 nM. Also, the “ADP-Glo kinase assay (%, 10 nM)” value in assay [2] is given as 87.75%.

For the compound `Cc1cccc(-c2ccn(-c3nc(N4CCOCC4)nc4c3ncn4-c3cccnc3)n2)c1` [Example 118, 4-(9-(pyridin-3-yl)-6-(3-(m-tolyl)-1H-pyrazol-1-yl)-9H-purin-2-yl)morpholine], the IC50 in assay [1] was at most 10 nM. For the same compound, the “ADP-Glo kinase assay (%, 10 nM)” value in assay [2] is recorded as 81.33%.

Source of the values: patent US20250388582A1, “NOVEL BICYCLIC HETEROARYL COMPOUND AND USE THEREOF” (ILDONG PHARMACEUTICAL CO., LTD., priority 2022, published 2025).
